Experimental data published in article PMC9687798, “Atypical Substrates of the Organic Cation Transporter 1” (Biomolecules, 2022).
Where two headings read alike, the source gives them in different places.

Experiments:
OCT3 = biological target: T1, OCT3 (Homo sapiens, UniProt O75751); assay: Cellular uptake ratio, OCT3-overexpressing HEK293 cells vs empty vector; assay type: cell-based
T1 construct: expressed in transfected cells; host or cells: HEK293, stably transfected; gift from Dr. Koepsell and Dr. Gorbulev (University of Würzburg)
T1 sequence (O75751 1-556): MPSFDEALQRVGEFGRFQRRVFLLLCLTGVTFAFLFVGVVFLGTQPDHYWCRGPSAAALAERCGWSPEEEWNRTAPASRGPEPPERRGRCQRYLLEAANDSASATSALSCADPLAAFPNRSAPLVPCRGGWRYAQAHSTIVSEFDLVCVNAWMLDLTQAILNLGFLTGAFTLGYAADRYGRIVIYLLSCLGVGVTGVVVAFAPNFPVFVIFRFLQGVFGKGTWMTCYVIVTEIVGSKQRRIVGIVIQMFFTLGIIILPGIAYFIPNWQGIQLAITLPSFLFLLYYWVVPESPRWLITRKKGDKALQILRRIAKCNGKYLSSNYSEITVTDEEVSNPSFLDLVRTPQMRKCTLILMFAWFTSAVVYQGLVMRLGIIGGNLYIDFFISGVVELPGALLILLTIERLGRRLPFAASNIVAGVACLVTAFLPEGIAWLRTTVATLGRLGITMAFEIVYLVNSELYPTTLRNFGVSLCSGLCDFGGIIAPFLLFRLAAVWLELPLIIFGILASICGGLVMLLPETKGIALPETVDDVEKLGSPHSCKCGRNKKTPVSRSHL
Method: (§1) The wild-type cell lines of OCT1 and OCT2, as well as the variant cell lines OCT1*2 and *3, were generated using the Flp-In system (Thermo Fisher Scientific, Darmstadt, Germany) as described in previous publications. The cell line overexpressing OCT3 was a kind gift from Dr. Koepsell and Dr. Gorbulev (University of Würzburg, Germany). Cells transfected with the empty pcDNA5/FRT vector were used for the transport experiments as a control cell line. All cells were cultured approximately up to passage 30.
(§2) Forty-eight hours before the transport experiments, 600,000 cells were plated on 12-well plates pre-coated with poly-D-lysine and incubated at 37 °C with 5% CO2. The prepared 12-well plate with cells was positioned on a heating plate pre-warmed to 37 °C. After removing the medium, the cells were washed with 37 °C HBSS+ (10 mM HEPES in Hank’s balanced salt solution, pH 7.4). Then, one pre-defined concentration of a substrate was added to each well. The incubation period was stopped by adding 2 mL of 4 °C HBSS+ and removing the cells from the heating plate. The cells were washed twice with 4 °C HBSS+. For cell lysis, the cells were incubated for 15 min with 500 µL of 80% acetonitrile (LGC Standards, Wesel, Germany), which contained a respective internal standard (Table 1).
(§3) For concentration-dependent transport, the cells were incubated with defined substrate concentrations (0.1, 1, 10, 30, 100, 300, 600, 1000 µM) for the respective pre-defined incubation times. […] The uptake by a transporter was normalised to the uptake by empty vector-transfected cells. […] The results of transport experiments were normalized to the total protein concentration per well. Total protein quantification was performed using a bicinchoninic acid assay with bovine serum albumin as standard.
(§4) The ratios of cellular uptake were calculated by dividing the total uptake of transporter-overexpressing cells by the total uptake into empty vector transfected cells. The concentration-dependent cellular net uptake was used for analysis of transport kinetics by subtracting for each substrate concentration the uptake of empty vector-transfected cells from the uptake of transporter-overexpressing cells. […] The intrinsic clearance Clint was expressed with the ratio of Vmax and KM.

human OCT1*1 (wild-type) [1] = biological target: T2, human OCT1*1 (wild-type) (Homo sapiens, UniProt O15245); assay: Concentration-dependent uptake (transport kinetics) in HEK293 cells overexpressing OCT1 wild-type; conditions: for Clint (±SEM): intrinsic clearance = ratio of Vmax and KM, OCT1 wild-type
T2 sequence (O15245 1-554): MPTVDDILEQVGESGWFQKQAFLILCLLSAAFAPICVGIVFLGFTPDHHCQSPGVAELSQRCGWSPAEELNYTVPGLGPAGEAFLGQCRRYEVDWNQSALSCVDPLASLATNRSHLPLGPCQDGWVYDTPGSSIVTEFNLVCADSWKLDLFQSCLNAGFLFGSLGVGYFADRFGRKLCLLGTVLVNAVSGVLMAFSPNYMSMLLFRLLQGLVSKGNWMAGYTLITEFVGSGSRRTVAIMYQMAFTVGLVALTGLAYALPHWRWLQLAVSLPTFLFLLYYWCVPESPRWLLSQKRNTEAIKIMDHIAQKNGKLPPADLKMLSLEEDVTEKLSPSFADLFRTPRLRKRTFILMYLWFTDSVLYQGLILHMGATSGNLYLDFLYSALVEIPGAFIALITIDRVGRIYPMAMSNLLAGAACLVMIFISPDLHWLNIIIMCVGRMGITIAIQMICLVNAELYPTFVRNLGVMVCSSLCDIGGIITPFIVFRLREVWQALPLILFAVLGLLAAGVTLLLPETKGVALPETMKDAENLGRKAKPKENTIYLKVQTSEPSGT

human OCT1*1 (wild-type) [2] = biological target: T2, human OCT1*1 (wild-type); assay: Cellular uptake ratio, OCT1-overexpressing HEK293 cells vs empty vector; assay type: cell-based
Method: as §1, §2, §3, §4

wild-type human OCT2 = biological target: T3, wild-type human OCT2 (Homo sapiens, UniProt O15244); assay: Cellular uptake ratio, OCT2-overexpressing HEK293 cells vs empty vector; assay type: cell-based
T3 sequence (O15244 1-555): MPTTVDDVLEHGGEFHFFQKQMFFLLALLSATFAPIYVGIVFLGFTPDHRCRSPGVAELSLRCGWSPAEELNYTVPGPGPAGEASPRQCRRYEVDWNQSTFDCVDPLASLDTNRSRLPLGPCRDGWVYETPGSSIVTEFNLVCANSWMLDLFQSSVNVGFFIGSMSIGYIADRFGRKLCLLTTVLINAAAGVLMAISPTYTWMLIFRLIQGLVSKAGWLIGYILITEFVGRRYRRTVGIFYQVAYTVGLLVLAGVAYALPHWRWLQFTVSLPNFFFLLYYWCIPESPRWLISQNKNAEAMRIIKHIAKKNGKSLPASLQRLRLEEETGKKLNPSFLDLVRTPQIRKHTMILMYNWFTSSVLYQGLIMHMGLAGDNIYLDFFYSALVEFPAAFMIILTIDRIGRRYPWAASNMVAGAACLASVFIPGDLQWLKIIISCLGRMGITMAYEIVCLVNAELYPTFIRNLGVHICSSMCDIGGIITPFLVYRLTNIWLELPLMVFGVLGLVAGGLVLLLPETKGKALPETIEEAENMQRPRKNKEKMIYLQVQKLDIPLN
Method: as §1, §2, §3, §4

[3] = based on ratio uptake data at 1 µM
[4] = net uptake (OCT1 minus empty vector), HEK293, 0.1-1000 µM substrate, Michaelis–Menten
[5] = good >5, poor 1–5, non-substrate <1 µL/mg protein/min or uptake not above empty vector
[6] = based on ratio uptake data at 100 µM (footnote *)

For `C[C@H]1COc2c(N3CCN(C)CC3)c(F)cc3c(=O)c(C(=O)O)cn1c23` [Levofloxacin, levofloxacin], the OCT3 transport category (OCT3; [3]) was 0 (no transport by OCT1, OCT2, and OCT3 occurred (i.e., no kinetic parameters or uptake ratio <2 without significance)), the “OCT1 substrate classification from concentration-dependent uptake” value (from here on “OCT1 substrate classification”) (human OCT1*1 (wild-type) [1]) was “poor substrate of OCT1” and the “Clint (±SEM)” value (human OCT1*1 (wild-type) [1]) was 3.77 ± 2.77 µL/mg Protein/min.

With `C[C@H](CS)C(=O)N1CCC[C@H]1C(=O)O` [Captopril, captopril] the OCT3 transport category (OCT3; [3]) was 0 (no transport by OCT1, OCT2, and OCT3 occurred (i.e., no kinetic parameters or uptake ratio <2 without significance)).

With `C[n+]1ccc(-c2ccccc2)cc1` [MPP^+, 1-methyl-4-phenylpyridinium] the “uptake ratio by OCT1 (normalised to empty vector)” value (human OCT1*1 (wild-type) [2]; 1 µM and 100 µM substance) was “up to 30”, the OCT1 transport category (human OCT1*1 (wild-type) [2]; [3]) was “++ (very good substrates of OCTs that have an intrinsic clearance >15 or show an uptake ratio >10)” and the OCT2 transport category (wild-type human OCT2; [3]) was “++ (very good substrates of OCTs that have an intrinsic clearance >15 or show an uptake ratio >10)”. The “uptake ratio by OCT3 (normalised to empty vector)” value (OCT3; 1 µM and 100 µM substance) was “relevant uptake”, the OCT3 transport category (OCT3; [3]) was “++ (very good substrates of OCTs that have an intrinsic clearance >15 or show an uptake ratio >10)” and the “Clint (±SEM)” value (human OCT1*1 (wild-type) [1]) was 20.8 ± 5.04 µL/mg Protein/min. The “Vmax (±SEM)” value (human OCT1*1 (wild-type) [1]; [4]) was 2263 ± 184 pmol/mg Protein/min and the Km (human OCT1*1 (wild-type) [1]; read-out: KM (±SEM), net uptake (OCT1 minus empty vector), HEK293, 0.1-1000 µM substrate, Michaelis–Menten) was 108 ± 17.4 µM.

For `C[N+]1(C)CCC[C@H]1C(=O)[O-]` [Stachydrine, stachydrine], the OCT1 transport category (human OCT1*1 (wild-type) [2]; [3]) was 0 (no transport by OCT1, OCT2, and OCT3 occurred (i.e., no kinetic parameters or uptake ratio <2 without significance)), the OCT2 transport category (wild-type human OCT2; [3]) was 0 (no transport by OCT1, OCT2, and OCT3 occurred (i.e., no kinetic parameters or uptake ratio <2 without significance)) and the OCT3 transport category (OCT3; [3]) was 0 (no transport by OCT1, OCT2, and OCT3 occurred (i.e., no kinetic parameters or uptake ratio <2 without significance)). For the same compound, the “OCT1 substrate classification” value (human OCT1*1 (wild-type) [1]; [5]) was “very poor OCT1-mediated transport” and the “Vmax (±SEM)” value (human OCT1*1 (wild-type) [1]; [4]) was 238 ± 134 pmol/mg Protein/min.

`C=C1[C@H](CO)[C@@H](O)C[C@@H]1n1cnc2c(=O)[nH]c(N)nc21` [Entecavir, entecavir] was tested, and the OCT3 transport category (OCT3; [3]) was 0 (no transport by OCT1, OCT2, and OCT3 occurred (i.e., no kinetic parameters or uptake ratio <2 without significance)).

With `Nc1nc(O)c2ncn(COC(CO)CO)c2n1` [Ganciclovir, ganciclovir] the OCT3 transport category (OCT3; [3]) was 0 (no transport by OCT1, OCT2, and OCT3 occurred (i.e., no kinetic parameters or uptake ratio <2 without significance)).

With `Nc1ncn([C@H]2C[C@H](O)[C@@H](CO)O2)c(=O)n1` [Decitabine, decitabine] the “OCT1 substrate classification” value (human OCT1*1 (wild-type) [1]; [5]) was “none of the four antimetabolites showed uptake by OCT1”.

With `Nc1ccn([C@@H]2O[C@H](CO)[C@@H](O)[C@@H]2O)c(=O)n1` [Cytarabine, cytarabine] the “OCT1 substrate classification” value (human OCT1*1 (wild-type) [1]) was “none of the four antimetabolites showed uptake by OCT1”.

For `Nc1ccn([C@@H]2O[C@H](CO)[C@@H](O)C2(F)F)c(=O)n1` [Gemcitabine, gemcitabine], the “OCT1 substrate classification” value (human OCT1*1 (wild-type) [1]; [5]) was “none of the four antimetabolites showed uptake by OCT1”.

`Cc1ccc(NC(=O)c2ccc(CN3CCN(C)CC3)cc2)cc1Nc1nccc(-c2cccnc2)n1` [Imatinib, imatinib] was tested, and the “uptake by OCT1 (normalised to empty vector)” value (human OCT1*1 (wild-type) [2]) was “did not show uptake by OCT1”.

`O=c1ncccn1[C@@H]1O[C@H](CO)[C@@H](O)[C@H]1O` [Zebularine, zebularine] was tested, and the “OCT1 substrate classification” value (human OCT1*1 (wild-type) [1]; [5]) was “none of the four antimetabolites showed uptake by OCT1”.

`C[C@@](Cc1ccc(O)c(O)c1)(NN)C(=O)O` [Carbidopa, carbidopa] was tested, and the OCT1 transport category (human OCT1*1 (wild-type) [2]; [6]) was 0 (no transport by OCT1, OCT2, and OCT3 occurred (i.e., no kinetic parameters or uptake ratio <2 without significance)), the OCT2 transport category (wild-type human OCT2; [6]) was 0 (no transport by OCT1, OCT2, and OCT3 occurred (i.e., no kinetic parameters or uptake ratio <2 without significance)) and the OCT3 transport category (OCT3; [6]) was 0 (no transport by OCT1, OCT2, and OCT3 occurred (i.e., no kinetic parameters or uptake ratio <2 without significance)). For the same compound, the “OCT1 substrate classification” value (human OCT1*1 (wild-type) [1]; [5]) was “linear increase in total uptake of both cell lines”.

With `Nc1nc2c(ncn2COCCO)c(=O)[nH]1` [Acyclovir, acyclovir] the OCT3 transport category (OCT3; [3]) was 0 (no transport by OCT1, OCT2, and OCT3 occurred (i.e., no kinetic parameters or uptake ratio <2 without significance)).
